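The compound was tested at five concentrations on cells cultured in 96-well plates, with a 48-hour exposure period. TGI marks complete inhibition of growth.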
Experiments:
Test in all cases: DTP human tumour cell line panel, 48 h
CCRF-CEM leukemia = test system: CCRF-CEM leukemia
COLO 205 colon = test system: COLO 205 colon
DLD-1 colon = test system: DLD-1 colon
HL-60(TB) leukemia = test system: HL-60(TB) leukemia
HT29 colon = test system: HT29 colon
KM12 colon = test system: KM12 colon
LXFL 529 NSCLC = test system: LXFL 529 NSCLC
M14 melanoma = test system: M14 melanoma
M19-MEL melanoma = test system: M19-MEL melanoma
NCI-H460 lung = test system: NCI-H460 lung
OVCAR-3 ovarian = test system: OVCAR-3 ovarian
SF-539 CNS = test system: SF-539 CNS
SK-MEL-28 melanoma = test system: SK-MEL-28 melanoma
SNB-75 CNS = test system: SNB-75 CNS
UO-31 renal = test system: UO-31 renal
MDA-MB-231 breast = test system: MDA-MB-231 breast

| SMILES | TGI (CCRF-CEM leukemia) [µM] | TGI (COLO 205 colon) [µM] | TGI (DLD-1 colon) [µM] | TGI (HL-60(TB) leukemia) [µM] | TGI (HT29 colon) [µM] | TGI (KM12 colon) [µM] | TGI (LXFL 529 NSCLC) [µM] | TGI (M14 melanoma) [µM] | TGI (M19-MEL melanoma) [µM] | TGI (NCI-H460 lung) [µM] | TGI (OVCAR-3 ovarian) [µM] | TGI (SF-539 CNS) [µM] | TGI (SK-MEL-28 melanoma) [µM] | TGI (SNB-75 CNS) [µM] | TGI (UO-31 renal) [µM] | TGI (MDA-MB-231 breast) [µM] |
| --- | --- | --- | --- | --- | --- | --- | --- | --- | --- | --- | --- | --- | --- | --- | --- | --- |
| CC12CCC([C@H](N3CCOCC3)/C1=N\OCCN1CCCC1)C2(C)C (some centres undefined) | > 100 | > 100 | > 100 | > 100 | > 100 | > 100 | > 100 | > 100 | > 100 | > 100 | > 100 | > 100 | > 100 | > 100 | > 100 |  |
| COc1ccc(N(C)CN(C)c2nc(N(C)C)nc(N(C)C)n2)cc1 | > 100 | > 100 | > 100 | > 100 | > 100 | > 100 | > 100 | > 100 | > 100 | > 100 | > 100 | > 100 | > 100 | > 100 | > 100 |  |
| COC(=O)C1=C(OC(=O)/C(=C/c2ccc(Cl)cc2Cl)c2ccc(Cl)cc2Cl)C(C(=O)OC)[C@@]2(O)[C@@H](C(=O)OC)[C@H](C)C[C@@H]1[C@@H]2C(=O)OC (some centres undefined) | > 100 | > 100 |  | > 100 | > 100 | > 100 |  | > 100 |  | > 100 | > 100 | > 100 | > 100 | > 100 | > 100 | > 100 |
| CCCCCCCC(=O)OC[C@@H](C[As](=O)(O)O)OC(=O)CCCCCCC | 9.55 | 34.3 | 27.5 | 21.7 | 28.1 |  | 25.3 | 29.6 | 31 |  |  | 22.3 | 26.6 | 29.5 | 17.1 |  |
| COc1cccc(/C(CC(O)(C(F)(F)F)C(F)(F)F)=N\N(C)C)c1 | > 100 | > 100 |  | > 100 | > 100 | > 100 |  | > 100 |  | > 100 | > 100 | > 100 | > 100 | > 100 | > 100 | > 100 |
| Cc1cc(C)nc(NS(=O)(=O)c2ccc(NN=c3c4ccccc4n(C)c4ccccc34)cc2)n1 | 77.6 | > 100 |  | > 100 | > 100 | > 100 |  | > 100 |  | > 100 | > 100 | > 100 | 67.7 | 96.9 | 71.7 | > 100 |
| CC1(C)CC(=O)/C(=C/C2CCNC2=S)C(=O)N1 (centres undefined) | > 100 | > 100 |  | > 100 | > 100 | > 100 |  | > 100 |  | > 100 | > 100 | > 100 | > 100 | > 100 | > 100 | > 100 |
| CCSc1c(C)c2c(n(Cc3ccc(OC)cc3)c1=O)Cc1ccccc1C2 | > 100 | > 100 |  | 31.6 | 72.2 | > 100 |  | 27.3 |  | 27.7 | > 100 | 80.1 | > 100 | > 100 | > 100 | 94.7 |
| CCOc1cc(-c2nc3ccccn3c2/N=C/c2cc([N+](=O)[O-])cc([N+](=O)[O-])c2O)ccc1O | > 100 | > 100 |  | > 100 | > 100 | > 100 |  | > 100 |  | > 100 | > 100 | > 100 | > 100 | > 100 | > 100 | > 100 |
| COc1ccc(/C(CCl)=C(\Nc2ccccc2)c2ccc(OC)c(OC)c2)cc1OC | > 100 | > 100 |  | > 100 | > 100 | > 100 |  | > 100 |  | > 100 | > 100 | > 100 | > 100 | > 100 | > 100 | > 100 |
| CN1CCC(CNC(=O)CCCCCCCCC(=O)NCC2(c3ccccc3)CCN(C)CC2)(c2ccccc2)CC1 | > 100 | > 100 |  | > 100 | > 100 | > 100 |  | > 100 |  | > 100 | > 100 | 48.8 | > 100 | > 100 | > 100 | > 100 |
| CC1(C)OCC2(CO1)CSCCCSCC1(COC(C)(C)OC1)CSCCCSC2 | > 100 | > 100 |  | > 100 | > 100 | > 100 |  | > 100 |  | > 100 | > 100 | > 100 | > 100 | > 100 | > 100 | > 100 |
| O=C1CSC(/C(=C/c2ccccc2)c2nc3ccccc3[nH]2)=N1 | > 100 | > 100 | > 100 | > 100 | > 100 | > 100 | > 100 | > 100 | > 100 | > 100 |  | 74.4 | > 100 | 50.7 | > 100 |  |
| CC1CC(C)[C@H](O)C([C@H](O)CC2CC(=O)N(C)C(=O)C2)C1 (some centres undefined) | > 100 | > 100 |  | > 100 | > 100 | > 100 |  | > 100 |  | > 100 | > 100 | > 100 | > 100 | > 100 | > 100 | > 100 |
| CC1(c2cccc3c2C2(O)C=CC4(CCC32)OCCO4)OCCO1 (centres undefined) | > 100 | > 100 | > 100 | > 100 | > 100 | > 100 | > 100 | > 100 | > 100 | > 100 | > 100 | > 100 | > 100 | > 100 | > 100 |  |
| C[C@]12CCC3c4ccc(O)cc4CC[C@H]3C1CC(=O)N(N)C2=O (some centres undefined) | > 100 | > 100 |  | > 100 | > 100 | > 100 |  | > 100 |  | > 100 | > 100 | > 100 | > 100 | > 100 | > 100 | > 100 |
| O=C(O)c1c[nH]c2c(=O)[nH]cnc12 | > 100 | > 100 | > 100 | > 100 | > 100 | > 100 | > 100 | > 100 | > 100 |  | > 100 |  | > 100 | > 100 | > 100 |  |
| CCCCCCCC(=O)OC[n+]1ccc(-c2c(COC(=O)NC(C)C)c(COC(=O)NC(C)C)c3n2CCC3)cc1 | > 60.3 | > 100 |  | 52.4 | > 100 | > 100 |  | > 100 |  | > 100 | > 100 | > 66.3 | > 100 | > 100 | > 100 | > 100 |
| CC(C)(C)OC(=O)NC1CC=CCC1NC(=O)OC(C)(C)C (centres undefined) | > 100 | > 100 |  | > 100 | > 100 | > 100 |  | > 100 |  | > 100 | > 100 | > 100 | > 100 | > 100 | > 100 | > 100 |
| CC1=NN(c2nc(N)nc(/C(C#N)=C/c3ccc([N+](=O)[O-])o3)n2)C(C)(C)C1 | > 100 | 3.02 |  | 6.32 | 4.37 | 28.1 |  | 2.75 |  | 10.8 | 11.1 | 12 | 19.1 | 10.1 | 31.8 | 3.29 |
| O[C@@]1(c2cccs2)c2cccc(Cl)c2[C@](O)(c2cccs2)c2cccc(Cl)c21 | > 100 | 38.6 |  | 46.3 | 35.5 | 34 |  | 31.5 |  | 34.2 | 37.1 | > 100 | 37.8 | > 100 | > 100 | 71 |
| c1cc(-c2csc(-c3ccsc3)c2)cs1 | > 100 | > 100 |  | > 100 | > 100 | > 100 |  | > 100 |  | > 100 | > 100 | > 100 | > 100 | > 100 | > 100 | > 100 |
| CCC(CS(=O)(=O)O)[N+](=O)[O-] (centres undefined) | > 100 | > 100 |  | > 100 | > 100 | > 100 |  | > 100 |  | > 100 | > 100 | > 100 | > 100 | > 100 | > 100 | > 100 |
| CC(=O)NC1=C(C)C(=O)c2c(nc3n2CCC3OC(=O)c2ccccc2)C1=N (centres undefined) | 9.71 | 3.27 |  | 3.74 | 3.96 | 11.6 |  | 2.76 |  | 3.07 | 5.71 | 2.56 | 3.45 | 5.27 | 4.34 | 6.45 |
| Nc1nc(Cl)c(N)c(NCC2(CO)CC(Cc3ccccc3)C2)n1 (centres undefined) | > 100 | > 100 |  | 17.3 | > 100 | > 100 |  | > 100 |  | > 100 | > 100 | > 100 | > 100 | > 100 | > 100 | > 100 |
| C[n+]1noc(/N=N\[O-])c1-c1cc(-c2c(/N=N\[O-])on[n+]2C)cc(-c2c(/N=N/[O-])on[n+]2C)c1 | > 100 | > 100 |  | > 100 | > 100 | > 100 |  | > 100 |  | > 100 | > 100 | > 100 | > 100 | > 100 | > 100 | > 100 |
